Measurements from US20050033021A1, “Chimeric Gatiphal 15 variants and their use in the analysis and discovery of modulators of G-protein coupled receptors” (priority 2003, published 2005).

Molecular target: T1, rat T1 R1/T1 R3 umami taste receptor (Rattus norvegicus, UniProt Q923K1+Q9Z0R8)
T1 construct: expressed in transfected cells; host or cells: HEK-293, transient transfection, pEAK10 expression vector
T1 sequence (Q9Z0R8 20-840): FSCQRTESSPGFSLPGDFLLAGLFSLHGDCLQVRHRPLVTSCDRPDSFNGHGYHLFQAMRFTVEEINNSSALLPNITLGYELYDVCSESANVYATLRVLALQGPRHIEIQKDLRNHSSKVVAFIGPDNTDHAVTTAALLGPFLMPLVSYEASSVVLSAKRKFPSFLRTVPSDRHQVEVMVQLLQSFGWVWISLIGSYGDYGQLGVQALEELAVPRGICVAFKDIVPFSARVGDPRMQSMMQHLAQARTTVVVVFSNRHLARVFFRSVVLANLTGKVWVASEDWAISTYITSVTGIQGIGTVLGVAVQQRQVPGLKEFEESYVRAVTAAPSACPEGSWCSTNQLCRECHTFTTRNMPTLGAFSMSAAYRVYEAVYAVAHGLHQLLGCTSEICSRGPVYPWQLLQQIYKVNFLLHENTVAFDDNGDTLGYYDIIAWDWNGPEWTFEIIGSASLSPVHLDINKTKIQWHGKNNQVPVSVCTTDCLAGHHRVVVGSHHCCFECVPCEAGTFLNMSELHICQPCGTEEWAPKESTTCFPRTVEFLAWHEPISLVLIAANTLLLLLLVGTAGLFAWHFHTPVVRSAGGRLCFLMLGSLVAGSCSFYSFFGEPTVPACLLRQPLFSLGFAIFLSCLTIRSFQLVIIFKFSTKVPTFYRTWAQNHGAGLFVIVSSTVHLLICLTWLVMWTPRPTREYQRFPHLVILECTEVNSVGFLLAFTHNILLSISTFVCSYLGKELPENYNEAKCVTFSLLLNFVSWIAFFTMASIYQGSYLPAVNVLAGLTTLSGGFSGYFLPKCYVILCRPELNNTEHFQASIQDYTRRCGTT
T1 sequence (Q923K1 21-858): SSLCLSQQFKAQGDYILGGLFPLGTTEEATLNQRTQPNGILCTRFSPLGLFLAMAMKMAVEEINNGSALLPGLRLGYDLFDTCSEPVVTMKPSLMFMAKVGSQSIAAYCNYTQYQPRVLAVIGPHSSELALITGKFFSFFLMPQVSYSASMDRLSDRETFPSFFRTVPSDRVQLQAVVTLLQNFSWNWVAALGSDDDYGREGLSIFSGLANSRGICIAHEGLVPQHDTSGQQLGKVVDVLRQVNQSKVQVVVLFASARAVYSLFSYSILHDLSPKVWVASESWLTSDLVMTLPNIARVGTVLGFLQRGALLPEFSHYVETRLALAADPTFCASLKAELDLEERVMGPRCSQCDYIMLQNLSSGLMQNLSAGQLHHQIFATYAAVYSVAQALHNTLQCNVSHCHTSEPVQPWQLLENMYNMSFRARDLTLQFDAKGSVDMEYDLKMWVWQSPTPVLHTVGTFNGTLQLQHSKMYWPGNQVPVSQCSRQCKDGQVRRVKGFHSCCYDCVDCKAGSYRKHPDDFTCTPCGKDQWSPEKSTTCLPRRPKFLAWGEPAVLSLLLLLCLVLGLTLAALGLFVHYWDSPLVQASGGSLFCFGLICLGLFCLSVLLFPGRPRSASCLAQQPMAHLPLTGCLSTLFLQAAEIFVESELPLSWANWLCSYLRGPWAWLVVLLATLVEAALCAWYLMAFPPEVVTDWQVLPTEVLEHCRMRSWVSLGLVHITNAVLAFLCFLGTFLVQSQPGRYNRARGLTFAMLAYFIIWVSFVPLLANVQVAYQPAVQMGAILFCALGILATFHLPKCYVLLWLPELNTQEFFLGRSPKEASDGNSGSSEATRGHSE
Experiment: Calcium imaging of HEK-293 cells transiently transfected with rat T1R1, T1R3 and Ga15 or Ga15/i1
Type: cell-based
Conditions: HEK-293 with rat T1R1, T1R3 and Ga15/i1; in the presence of 2.5 mM IMP
Excerpt: Rat T1 R2 and T1 R3 expression constructs were generated using the pEAK10 expression vector (Edge Biosystems). (Rat T1 R1, T1 R2, and T1 R3 nucleic acid sequences are described in U.S. Provisional Application No. 60/339,472, incorporated by reference in its entirety herein). […] Calcium mobilization was monitored on an Axiovert S100 microscope equipped with an inverted 10X/0.5 LWID piano fluor objective (Zeiss) and a cooled CCID camera (Princeton Instruments). Fluorescence images were acquired at 480 nrn excitation and 535 nm emission, and analyzed with Imaging Workbench 4.0 software (Axon Instruments). T1 R receptor activity was quantitated by counting the number of responding cells 30 seconds after stimulus addition. […]

Row | SMILES | cell response (intracellular calcium) to umami taste stimuli
1 | N[C@@H](CC(=O)O)C(=O)O [L-aspartate] | responded
2 | N[C@@H](CCC(=O)O)C(=O)O [L-glutamate] | responded
